The text below walks through data of patent publication US10709714B2 (CL BioSciences LLC, priority 2013, dated 2020).

Where two headings read alike, the source gives them in different places. Ends that are not written are not given here.

For assay [1], the system named is isolated G cells. Put plainly: cAMP production in isolated G cells. The format is cell-based. The method, then:
(§1) The effect of the ovarian hormone, estrogen on G cell function was evaluated.

In assay [2] the test system is MAPK phosphorylation in G cells. Put plainly: MAPK phosphorylation in G cells. The settings on record: preincubation. The format is cell-based.
Assay [3] relates to isolated G cells. Put plainly: Gastrin release from isolated G cells. The format is cell-based. The note with it: for EC50: read-out: EC50, stimulation of gastrin release. The method, then:
as §1

In assay [4] the test system is isolated rodent G cells. The note with it: for EC50: read-out: Calcium (EC50); for IC50: read-out: OCTR (IC50). An excerpt: This animal has been extensively studied as a model of gastric acid pathophysiology relevant to long-term pharmacological inhibition of acid secretion (low acid state pathobiology).
Assay [5] relates to G cells. Put plainly: Calcium influx in G cells (flow cytometry, FITC shift). It counts as cell-based. The settings on record: CaCl2 4 mM.
Assay [6] relates to PTH chief cells. The settings on record: read-out: EC50, stimulation of PTH release; human PTH chief cells.
The subject of assay [7] is isolated G cells. Description: Gastrin release from isolated G cells. It counts as cell-based. The settings on record: for effect on CaCl2-mediated gastrin release: nifedipine 1 μm (preincubation 10 mins), H-89 10 μM, PD98059 0.1 μM, wortmannin 1 nM.
Assay [8] concerns the target T1, CCK2 receptor (Homo sapiens, UniProt P32239).
T1 construct: Gastrin stimulated both cAMP as well as calcitonin release from the well-differentiated human MTC cell line, MTC-SK; endogenous in cells; host or cells: MTC-SK (human medullary thyroid carcinoma cell line)
T1 sequence (P32239 1-447): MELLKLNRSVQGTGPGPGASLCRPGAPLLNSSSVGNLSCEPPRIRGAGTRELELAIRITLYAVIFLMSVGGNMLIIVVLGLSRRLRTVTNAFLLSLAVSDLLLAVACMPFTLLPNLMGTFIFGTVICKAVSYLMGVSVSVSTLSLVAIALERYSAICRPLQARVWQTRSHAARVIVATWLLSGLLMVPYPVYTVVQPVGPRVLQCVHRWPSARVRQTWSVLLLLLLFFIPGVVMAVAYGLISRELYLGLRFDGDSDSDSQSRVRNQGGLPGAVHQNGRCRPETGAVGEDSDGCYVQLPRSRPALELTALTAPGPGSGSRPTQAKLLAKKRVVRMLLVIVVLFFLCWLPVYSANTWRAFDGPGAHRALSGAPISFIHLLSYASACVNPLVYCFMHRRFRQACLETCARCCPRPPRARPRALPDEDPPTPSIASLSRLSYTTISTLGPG
Description: Gastrin-stimulated cAMP production and calcitonin release/transcription in MTC-SK cells. The format is cell-based. The note with it: H-89 10 μM preincubation. For orientation: Cyclic AMP is a second messenger, typically raised through Gs and lowered through Gi signalling.

Assay [9] concerns Mastomys femur. Description: Bone histomorphometry (TRAP-positive osteoclasts) in loxtidine-treated Mastomys. The format is in vivo. The method, then: In one aspect, the changes in loxtidine-treated animals reflect loss of bone mineralization and increased resorption—features consistent with osteoporotic phenotypes. BM=bone mineralization, RC=resorption cavity.
Animals (females) 4-6 months old were treated with Loxtidine for 60 or 120 days. Age- and sex-matched untreated animals provided a control group.
Thereafter, bone histomorphometry was examined. […] Evidence of osteoid seams and osteomalacia was also noted (FIG. 21).

The nature of assay [10]: Plasma gastrin in Mastomys under irreversible gastric acid suppression. The settings on record: Mastomys 6-9 months, treated 30 days, Loxtidine 1 mg/L in drinking water. It counts as in vivo. An excerpt: This animal has been extensively studied as a model of gastric acid pathophysiology relevant to long-term pharmacological inhibition of acid secretion (low acid state pathobiology). […] Such treatment therefore results in an achlorhydric and hypergastrinemic animal model.

The target of assay [11] is gastrin/CCK2 receptor (human, on isolated PTH chief cells and on the MTC-SK cell line) (human) (UniProt P32239). Description: cell-based or functional assay.
For assay [12] the following is noted: 0.02-4 U/min, young anesthetized pigs; cited from earlier work.
Assay [13] concerns the target T2, calcitonin receptor on G cells.
T2 sequence (P30988 whole entry, species assumed, looked up): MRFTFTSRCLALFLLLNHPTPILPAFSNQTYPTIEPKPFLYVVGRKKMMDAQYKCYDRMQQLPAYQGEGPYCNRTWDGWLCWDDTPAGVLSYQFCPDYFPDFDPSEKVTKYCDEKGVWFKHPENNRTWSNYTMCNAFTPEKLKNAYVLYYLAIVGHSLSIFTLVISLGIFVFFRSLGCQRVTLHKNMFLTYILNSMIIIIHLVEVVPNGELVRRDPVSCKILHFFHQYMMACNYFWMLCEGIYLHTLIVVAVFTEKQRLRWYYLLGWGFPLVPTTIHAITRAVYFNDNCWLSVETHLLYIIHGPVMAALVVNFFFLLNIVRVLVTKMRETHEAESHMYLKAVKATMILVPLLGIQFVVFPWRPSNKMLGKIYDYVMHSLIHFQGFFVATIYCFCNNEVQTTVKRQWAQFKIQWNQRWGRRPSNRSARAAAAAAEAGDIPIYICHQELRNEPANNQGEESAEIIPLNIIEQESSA
Description: cell-based or functional assay.

In assay [14] the target is PTH receptor on G cells. Put plainly: cell-based or functional assay.
Where [15] appears, read: H-89 10 μM preincubation 10 mins.

Take `C[C@]12CC[C@@H]3c4ccc(O)cc4CC[C@H]3[C@@H]1CC[C@@H]2O` [17β-estradiol]: the “inhibition of cAMP production” value in assay [1] was −15%. Moreover, the IC50 in assay [1] (read-out: IC50, inhibition of cAMP synthesis) worked out at 0.0011 nM; in assay [3] (read-out: IC50, inhibition of gastrin release), 4.6 pM. The “inhibition of MAPK phosphorylation” value in assay [2] is reported as 75%. In addition, in [3], the “inhibition of gastrin release” value is reported as approximately 20%.

As for `[Ca+2].[Cl-].[Cl-]` [CaCl2], the “cAMP production during calcium-mediated gastrin secretion” value in assay [1] is “not associated with cAMP production”. The EC50 amounted to 10000 µM in [4] (Low acid G-cells), 4000 µM in assay [4] (Normal G-cells) and 4100 µM in assay [3] (isolated G cells). The “calcium influx (FITC shift rightwards)” value in assay [5] is recorded as more than 5 fold. Also, in [3] (isolated G cells), the “stimulation of gastrin release” value stood at 8 fold.

Turning to `CC(C)C[C@H](NC(=O)[C@H](CCCCN)NC(=O)CNC(=O)[C@H](CC(C)C)NC(=O)[C@@H](NC(=O)[C@@H]1CSSC[C@H](N)C(=O)N[C@@H](CO)C(=O)N[C@@H](CC(N)=O)C(=O)N[C@@H](CC(C)C)C(=O)N[C@@H](CO)C(=O)N[C@@H]([C@@H](C)O)C(=O)N1)C(C)C)C(=O)N[C@@H](CO)C(=O)N[C@@H](CCC(N)=O)C(=O)N[C@@H](CCC(=O)O)C(=O)N[C@@H](CC(C)C)C(=O)N[C@@H](Cc1c[nH]cn1)C(=O)N[C@@H](CCCCN)C(=O)N[C@@H](CC(C)C)C(=O)N[C@@H](CCC(N)=O)C(=O)N[C@H](C(=O)N[C@@H](Cc1ccc(O)cc1)C(=O)N1CCC[C@H]1C(=O)N[C@@H](CCCNC(=N)N)C(=O)N[C@H](C(=O)N[C@@H](CC(N)=O)C(=O)N[C@H](C(=O)NCC(=O)N[C@@H](CO)C(=O)NCC(=O)N[C@H](C(=O)N1CCC[C@H]1C(N)=O)[C@@H](C)O)[C@@H](C)O)[C@@H](C)O)[C@@H](C)O` [Calcitonin], the “inhibition of cAMP production” value in assay [1] is reported as 20%. The IC50 in assay [1] (read-out: I50, inhibition of cAMP production) came out at 3.8 nM. In addition, the “inhibition of gastrin release” value in assay [3] is listed as approximately 20%.

As to `CSCC[C@H](NC(=O)[C@H](Cc1c[nH]c2ccccc12)NC(=O)CNC(=O)[C@H](Cc1ccc(O)cc1)NC(=O)[C@H](C)NC(=O)[C@H](CCC(=O)O)NC(=O)[C@H](CCC(=O)O)NC(=O)[C@H](CCC(=O)O)NC(=O)[C@H](CCC(=O)O)NC(=O)[C@H](CCC(=O)O)NC(=O)[C@H](CC(C)C)NC(=O)[C@H](Cc1c[nH]c2ccccc12)NC(=O)[C@@H]1CCCN1C(=O)CNC(=O)[C@@H]1CCC(=O)N1)C(=O)N[C@@H](CC(=O)O)C(=O)N[C@@H](Cc1ccccc1)C(N)=O` [Gastrin], the EC50 in assay [6] stood at 0.00042 µM.

Take `O=S(=O)(NCCNC/C=C/c1ccc(Br)cc1)c1cccc2cnccc12` [H-89]: in assay [1] (setting [15]), the “effect on PTH-stimulated cAMP production” value is given as “reversed”. In addition, the “effect on calcitonin inhibition of gastrin release” value in [7] (H-89 10 μM preincubation) is reported as “reversed”. Moreover, in assay [7] (setting [15]), the “effect on PTH-stimulated gastrin release” value was “inhibited”. Besides, the “effect on CaCl2-mediated gastrin release” value in assay [7] was “could not be inhibited”. Besides, in assay [8], the “effect on gastrin-stimulated cAMP production” value is listed as “inhibited” and the “effect on gastrin-stimulated calcitonin gene transcription” value was “reversed”.

Consider `Cn1nc(CO)nc1NCCCOc1cccc(CN2CCCCC2)c1` [Loxtidine], for which the entries for the “numbers of TRAP-positive osteoclasts” value in assay [9] (8-week treated Mastomys) and in assay [9] (16-week treated Mastomys) were 15±6 and 16±4.5, respectively. In assay [10], this molecule displayed a plasma gastrin levels of 104 ± 23 pg/mL.

As for `C[C@@H](O)[C@@H]1NC(=O)[C@H](CCCCN)NC(=O)[C@@H](Cc2c[nH]c3ccccc23)NC(=O)[C@H](Cc2ccccc2)NC(=O)[C@@H](NC(=O)[C@H](N)Cc2ccccc2)CSSC[C@@H](C(=O)N[C@H](CO)[C@@H](C)O)NC1=O` [OCTR, octreotide], the “increase of IC50 in low acid versus normal G cells” value in [4] is approximately 5 fold. For the same molecule, the IC50 worked out at 140 pM in [4] (Low acid G-cells) and 28 pM in assay [4] (Normal G-cells).

In the case of `COc1cccc(-c2cc(=O)c3ccccc3o2)c1N` [PD98059], the “effect on CaCl2-mediated gastrin release” value in assay [7] is reported as “could not be inhibited”.

For the molecule PTH: parathyroid hormone, the “stimulation of cAMP production” value in assay [1] is recorded as 250%. The EC50 in [1] (read-out: E50, stimulation of cAMP production) is 0.004 µM; in assay [3] (estimated), 0.06 µM. Further, the “stimulation of gastrin release” value in assay [3] (isolated G cells) is approximately 8 fold.

gastrin (ligand): in assay [11], the PTH release from isolated human PTH chief cells came to 420 pM, the PTH synthesis in isolated human PTH chief cells was determined as 1 nM and the cAMP production in MTC-SK cells came out at 0.67 pM.

“synthetic human 1-34 PTH: synthetic human 1-34 parathyroid hormone used in cited pig studies (SVSEIQLMHNLGKHLNSMERVEWLRKKLQDVHNF; Parathyroid hormone; UniProt P01270 32-65, looked up, fragment)”: the “increase in gastrin release” value in [12] is given as “approximately 10 fold”.

B1: native bovine PTH: native bovine parathyroid hormone used in cited pig studies (peptide, UniProt P01268 32-115, looked up)
Parathyroid hormone: AVSEIQFMHNLGKHLSSMERVEWLRKKLQDVHNFVALGASIAYRDGSSQRPRKKEDNVLVESHQKSLGEADKADVDVLIKAKPQ
modifications: Parathyroid hormone
notes: native bovine parathyroid hormone used in cited pig studies
In the case of B1, the “increase in gastrin release” value in [12] was “approximately 10 fold”.

With CGNLSTCMLGTYTQDFNKFHTFPQTAIGVGAP (ligand, UniProt P01258 85-116, looked up, species assumed, ends and bridges not checked; cysteine pairing not given here) [calcitonin], in assay [13], the inhibition of cAMP production in isolated G cells came to 3.8 nM and the inhibition of gastrin release from isolated G cells turned out to be 1.9 nM.

B2: PTH (parathyroid hormone) (ligand, UniProt P01270 32-115, looked up, species assumed)
Parathyroid hormone: SVSEIQLMHNLGKHLNSMERVEWLRKKLQDVHNFVALGAPLAPRDAGSQRPRKKEDNVLVESHEKSLGEADKADVNVLTKAKSQ
modifications: Parathyroid hormone
In assay [14], B2 had a cAMP production in isolated G cells of 4 nM and a gastrin release from isolated G cells of 60 nM.
